From US20230181609A1, “IMMUNOMODULATORY OLIGOSACCHARIDES” (The Regents of the University of California, priority 2017, published 2023)

Columns and labels:
[1] = background statement; cited from earlier work
[2] = system: IL-6 and IL-1β mRNA expression in LPS-activated RAW 264.7 cells; experiment: Pro-inflammatory cytokine mRNA expression (RT-PCR) in LPS-stimulated RAW 264.7 macrophages; format: cell-based, murine
Description: RAW246.7 cells were exposed to LPS either alone or in combination with either pooled human milk oligosaccharides (HMOs), or 3′-sialyllactose (3′SL) or 2′-fucosyllactose (2′FL). After 6 hours, IL-6 (A) and IL-1β (B) mRNA levels were measured by RT-PCR and are plotted as mean±standard deviation (n=8) relative the respective mRNA levels in cells that were exposed to LPS alone (**p<0.01; ***p<0.001). HMOs are a group of more than 150 different structurally distinct oligosaccharides and their composition follows a basic structural blueprint (C), containing five monosaccharide building blocks: glucose (dark gray circle), galactose (light gray circle), N-acetylglucosamine (dark gray square), fucose (gray triangle) and sialic acid (gray diamond). 3′SL contains lactose with sialic acid at the terminal end; 2′FL contains lactose with fucose at the terminal end.
Oligosaccharides Reduce Pro-Inflammatory Cytokine mRNA Expression in Stimulated Macrophages. HMOs were first isolated and purified from pooled human donor milk (pHMO) by using polymixin B affinity chromatography to remove any lipopolysaccharide (LPS) contamination. RAW 264.7 cells, a murine macrophage cell line, were then incubated with LPS (10 ng/mL) and pHMO (500 ηg/mL) for 6 hours. RT-PCR was used to measure cytokine mRNA expression.
A multi-dimensional chromatography approach was used that separates pHMO first by charge and then by size. […] To exclude that the observed effect was due to impurities or contaminations from the isolation process, the results were confirmed with synthetized and commercially available 3′SL. […] Other oligosaccharides like 2′-fucosyllactose (2′FL), where the terminal monosaccharide is fucose instead of sialic acid (see FIG. 1C), had no effect, emphasizing that the anti-inflammatory effect of 3′SL in macrophages is specific to the structure of 3′SL.

[3] = system: collagen antibody-induced arthritis (CAIA); experiment: Collagen antibody-induced arthritis (CAIA) mouse model; format: in vivo, female BALB/c mice
Description: Oral gavage of 3′SL (20 mg thrice daily, beginning at the time of LPS trigger) reduces baseline-corrected ankle swelling (A) and clinical pathology score 28 (B) over the course of the study. […] (*p<0.05, **p<0.01, ***p<0.001).
Rheumatoid Arthritis In vivo Experimental Design. Macrophages and the pro-inflammatory cytokines IL-6 and IL-1β are known to perform a major role in the development and progression of joint destruction in animal models and patients with RA. […] Next, it was asked whether or not the in vitro results translate to an in vivo model. 3′SL efficacy in a collagen antibody-induced arthritis (CAIA) model was tested in mice. In the CAIA model, arthritis is induced by systemic administration of a cocktail of monoclonal antibodies that target various regions of collagen type II, which is one of the major constituents of articular cartilage matrix proteins, followed by the administration of endotoxin (LPS) on day 3. The high uptake rate in the CAIA model and the capacity to synchronize the development of arthritis from the time of antibody injection, makes this a relatively straightforward model that is used to address questions of pathogenic mechanisms and to screen candidate therapeutic agents.
8-week old female BALB/c mice were injected with 1.5 mg of Arthrogen-CIA monoclonal antibody cocktail (Chondrex, Inc.). Three days later, the mice were injected with 25 μg of LPS. Beginning with the time of LPS administration and followed for the next 11 consecutive days, mice were orally gavaged thrice daily with either 3′SL (20 mg in saline) or saline alone as control. With the tester blinded to the study groups, arthritis in each limb was determined once per day. […] By adding together, the scores of all four limbs, the maximum score per mouse is 28. In addition, a caliper was placed across the ankle joint at the widest point to measure ankle thickness in both hind limbs daily. 14 days after antibody cocktail administration, mice were euthanized and hind paws collected and processed for histology. H&E—as well as Toluidine blue-stained sections were scored from 0 to 4 for inflammation, bone erosion and cartilage depletion based on a previously validated scoring system.

[4] = system: primary mouse cells (bone marrow derived macrophages); experiment: Pro-inflammatory cytokine expression in primary mouse bone marrow derived macrophages; format: cell-based
Description: (§1) Accordingly, the results with 3′SL translate to primary cells as well as to human macrophages.

[5] = system: human THP-1 monocytic cell line; experiment: Pro-inflammatory cytokine expression in human THP-1 monocytic cell line; format: cell-based
Description: as §1

[6] = RAW 264.7 cells, LPS 10 ng/mL, 6 hours, compared to LPS alone
[7] = 20 mg in saline, oral gavage thrice daily from LPS administration, vs saline
[8] = hind paws, day 14, scored 0 to 4, 20 mg oral gavage thrice daily

SMILES	digestion in the stomach and absorption [1]	tolerability [1]	IC50 for reducing IL-6 and IL-1β mRNA expression (dose-range finding studies) ([2]; LPS-stimulated macrophages)	IL-1β mRNA level [2, 6]	IL-6 mRNA level [2, 6]	Baseline-corrected ankle thickness (paw swelling) [3, 7]	clinical index score 28 [3, 7]	adverse effects ([3]; 14-day study period, 20 mg oral gavage thrice daily)	histology score for cartilage damage [3, 8]	histology score for erosion [3, 8]	histology score for inflammation [3, 8]	pro-inflammatory cytokine expression [4]	pro-inflammatory cytokine expression [5]
CC(=O)N[C@H]1[C@H](O[C@H]2[C@@H](O)[C@@H](CO)O[C@@H](O[C@H]3[C@H](O)[C@@H](O)C(O)O[C@@H]3CO)[C@@H]2O)O[C@H](CO)[C@@H](O[C@@H]2O[C@H](CO)[C@H](O)[C@H](O)[C@H]2O)[C@@H]1O (mixture of isomers) [LNnT, lacto-N-(neo)tetraose]	remain undigested in the stomach and are absorbed intact in the lower gastrointestinal tract	well tolerated											
CC(=O)N[C@H]1[C@H]([C@H](O)[C@H](O)CO)O[C@@](O[C@H]2[C@@H](O)[C@@H](CO)O[C@@H](O[C@H]3[C@H](O)[C@@H](O)C(O)O[C@@H]3CO)[C@@H]2O)(C(=O)O)C[C@@H]1O (stereo partly shown) [3′SL, 3′-sialyllactose]			around 15 μg/mL	most effective	most effective	significantly reduced	significantly reduced	No adverse effects	significantly lower	significantly lower	significantly lower	reduced	reduced
